Measurements as given in patent US7375081B2, “Therapeutic combination of a pneumocandin derivative and an antifungal agent” (Astellas Pharma Inc., priority 1999, dated 2008).
Like-named read-outs stand apart in the source and are kept apart here.

System: clinical isolates of Aspergillus fumigatus
Assay: Broth microdilution checkerboard MIC, RPMI medium (pH 7.0), drugs alone and combined
Format: cell-based
Conditions: for MIC: Aspergillus fumigatus
Experimental: The broth microdillution method using RPMI medium (pH 7.0) was used, comparing the each drug alone (Test Compound, AMPH-B, ITCZ, Nikkomycin X and 5-FC) and combined for each clinical isolates of Aspergillus fumigatus. A combination of drug concentrations was evaluated by the checkerboard method.
All tubes were examined macroscopically for growth and compared to a control (no drug). MIC was visually determined as the lowest concentration resulting in prominent decrease in turbidity compared to controls.
The Fractional Inhibitory Concentration (FIC) for each drug in mixture wells was compared to the MIC for each drug alone. The FIC index was calculated from the sum of the FICs for the two drugs. A quantitative expression of the interaction for inhibition is as follows: Synergy≦0.5; Test Result In vitro combination with Test Compound and AMPH-B against A. fumigatus

With `Nc1[nH]c(=O)ncc1F` [5-FC, flucytosine] the “MIC 5-FC Combination” value (A. fumigatus FP1990, in combination with Test Compound) was 8 mg/L and the MIC (A. fumigatus FP1990, drug alone, read-out: MIC 5-FC Alone) was over 32 mg/L.

In the case of `C[C@@H]1[C@H](O)[C@@H](C)/C=C/C=C/C=C/C=C/C=C/C=C/C=C/[C@H](O[C@@H]2O[C@H](C)[C@@H](O)[C@H](N)[C@@H]2O)C[C@@H]2O[C@](O)(C[C@@H](O)C[C@@H](O)[C@H](O)CC[C@@H](O)C[C@@H](O)CC(=O)O[C@H]1C)C[C@H](O)[C@H]2C(=O)O` [AMPH-B, amphotericin B], the “MIC AMPH-B Alone” value (A. fumigatus 8004, drug alone) is reported as 2 mg/L and the “MIC AMPH-B Combination” value (A. fumigatus 8004, in combination with Test Compound) is reported as 0.5 mg/L.

`CCC(C)n1ncn(-c2ccc(N3CCN(c4ccc(OCC5COC(Cn6cncn6)(c6ccc(Cl)cc6Cl)O5)cc4)CC3)cc2)c1=O` (stereo not shown) [ITCZ, itraconazole] was tested, and the “MIC ITCZ Combination” value (A. fumigatus 8008, in combination with Test Compound) was 0.125 mg/L and the MIC (A. fumigatus 8008, drug alone, read-out: MIC ITCZ Alone) was 0.5 mg/L.

`C[C@@H]([C@H](N)C(=O)N[C@H](C(=O)O)[C@H]1OC(n2cc(C=O)nc2O)[C@H](O)[C@@H]1O)[C@H](O)c1ccc(O)cn1` (stereo partly shown) [Nikkomycin X, nikkomycin X] was tested, and the “MIC Nikkomycin X Alone” value (A. fumigatus FP1923, drug alone) was 128 mg/L and the “MIC Nikkomycin X Combination” value (A. fumigatus FP1923, in combination with Test Compound) was 4 mg/L.

For `CCCCCOc1ccc(-c2cc(-c3ccc(C(=O)NC4CC(O)C(O)NC(=O)C5C(O)C(C)CN5C(=O)C(C(O)CC(N)=O)NC(=O)C(C(O)C(O)c5ccc(O)c(OS(=O)(=O)[O-])c5)NC(=O)C5CC(O)CN5C(=O)C(C(C)O)NC4=O)cc3)no2)cc1.[Na+]` (stereo not shown) [Test Compound], the “MIC Test Compound Combination” value (A. fumigatus 8004, in combination with AMPH-B) was 0.0078 mg/L, the “MIC Test Compound Combination” value (A. fumigatus 8008, in combination with ITCZ) was 0.0078 mg/L and the “MIC Test Compound Combination” value (A. fumigatus FP1923, in combination with Nikkomycin X) was “≦0.001 μg/ml”. For the same molecule, the “MIC Test Compound Combination” value (A. fumigatus FP1990, in combination with 5-FC) was 0.002 mg/L, the MIC (read-out: MIC Test Compound Alone, A. fumigatus 8004, drug alone) was 0.0313 mg/L and the MIC (read-out: MIC Test Compound Alone, A. fumigatus 8008, drug alone) was 0.0313 mg/L. For the same molecule, the MIC (read-out: MIC Test Compound Alone, A. fumigatus FP1923, drug alone) was 0.0039 mg/L and the MIC (read-out: MIC Test Compound Alone, A. fumigatus FP1990, drug alone) was 0.0078 mg/L.
